# Test results: patent publication US12421225B2, “Heteroaromatic amide derivative and medicament containing the same” (KAKEN PHARMACEUTICAL CO., LTD., priority 2018, dated 2025)
# How the values were obtained:
# human Nav1.7 = human Nav1.7 (Homo sapiens (Human), UniProt Q15858); test: Human Nav1.7 inhibitory activity evaluation (automated patch clamp QPatch16X, HEK293A cells stably expressing human Nav1.7 and human Navβ1); format: cell-based
# Outline: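 QPatch16X whole-cell recordings at room temperature from HEK293A cells stably expressing human Nav1.7 with Navβ1, CsF-based internal solution, pH 7.4 external, 0.1% DMSO. From −100 mV holding, protocol included a 15 s hold at a potential inactivating ~30-40% of channels; IC50 from inward current at the second −10 mV pulse.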
# human Nav1.5 = human Nav1.5 (Homo sapiens (Human), UniProt Q14524); test: Human Nav1.5 inhibitory activity evaluation (automated patch clamp QPatch16X, HEK293 cells stably expressing human Nav1.5); format: cell-based
# Chain of human Nav1.5 (Q14524 whole entry): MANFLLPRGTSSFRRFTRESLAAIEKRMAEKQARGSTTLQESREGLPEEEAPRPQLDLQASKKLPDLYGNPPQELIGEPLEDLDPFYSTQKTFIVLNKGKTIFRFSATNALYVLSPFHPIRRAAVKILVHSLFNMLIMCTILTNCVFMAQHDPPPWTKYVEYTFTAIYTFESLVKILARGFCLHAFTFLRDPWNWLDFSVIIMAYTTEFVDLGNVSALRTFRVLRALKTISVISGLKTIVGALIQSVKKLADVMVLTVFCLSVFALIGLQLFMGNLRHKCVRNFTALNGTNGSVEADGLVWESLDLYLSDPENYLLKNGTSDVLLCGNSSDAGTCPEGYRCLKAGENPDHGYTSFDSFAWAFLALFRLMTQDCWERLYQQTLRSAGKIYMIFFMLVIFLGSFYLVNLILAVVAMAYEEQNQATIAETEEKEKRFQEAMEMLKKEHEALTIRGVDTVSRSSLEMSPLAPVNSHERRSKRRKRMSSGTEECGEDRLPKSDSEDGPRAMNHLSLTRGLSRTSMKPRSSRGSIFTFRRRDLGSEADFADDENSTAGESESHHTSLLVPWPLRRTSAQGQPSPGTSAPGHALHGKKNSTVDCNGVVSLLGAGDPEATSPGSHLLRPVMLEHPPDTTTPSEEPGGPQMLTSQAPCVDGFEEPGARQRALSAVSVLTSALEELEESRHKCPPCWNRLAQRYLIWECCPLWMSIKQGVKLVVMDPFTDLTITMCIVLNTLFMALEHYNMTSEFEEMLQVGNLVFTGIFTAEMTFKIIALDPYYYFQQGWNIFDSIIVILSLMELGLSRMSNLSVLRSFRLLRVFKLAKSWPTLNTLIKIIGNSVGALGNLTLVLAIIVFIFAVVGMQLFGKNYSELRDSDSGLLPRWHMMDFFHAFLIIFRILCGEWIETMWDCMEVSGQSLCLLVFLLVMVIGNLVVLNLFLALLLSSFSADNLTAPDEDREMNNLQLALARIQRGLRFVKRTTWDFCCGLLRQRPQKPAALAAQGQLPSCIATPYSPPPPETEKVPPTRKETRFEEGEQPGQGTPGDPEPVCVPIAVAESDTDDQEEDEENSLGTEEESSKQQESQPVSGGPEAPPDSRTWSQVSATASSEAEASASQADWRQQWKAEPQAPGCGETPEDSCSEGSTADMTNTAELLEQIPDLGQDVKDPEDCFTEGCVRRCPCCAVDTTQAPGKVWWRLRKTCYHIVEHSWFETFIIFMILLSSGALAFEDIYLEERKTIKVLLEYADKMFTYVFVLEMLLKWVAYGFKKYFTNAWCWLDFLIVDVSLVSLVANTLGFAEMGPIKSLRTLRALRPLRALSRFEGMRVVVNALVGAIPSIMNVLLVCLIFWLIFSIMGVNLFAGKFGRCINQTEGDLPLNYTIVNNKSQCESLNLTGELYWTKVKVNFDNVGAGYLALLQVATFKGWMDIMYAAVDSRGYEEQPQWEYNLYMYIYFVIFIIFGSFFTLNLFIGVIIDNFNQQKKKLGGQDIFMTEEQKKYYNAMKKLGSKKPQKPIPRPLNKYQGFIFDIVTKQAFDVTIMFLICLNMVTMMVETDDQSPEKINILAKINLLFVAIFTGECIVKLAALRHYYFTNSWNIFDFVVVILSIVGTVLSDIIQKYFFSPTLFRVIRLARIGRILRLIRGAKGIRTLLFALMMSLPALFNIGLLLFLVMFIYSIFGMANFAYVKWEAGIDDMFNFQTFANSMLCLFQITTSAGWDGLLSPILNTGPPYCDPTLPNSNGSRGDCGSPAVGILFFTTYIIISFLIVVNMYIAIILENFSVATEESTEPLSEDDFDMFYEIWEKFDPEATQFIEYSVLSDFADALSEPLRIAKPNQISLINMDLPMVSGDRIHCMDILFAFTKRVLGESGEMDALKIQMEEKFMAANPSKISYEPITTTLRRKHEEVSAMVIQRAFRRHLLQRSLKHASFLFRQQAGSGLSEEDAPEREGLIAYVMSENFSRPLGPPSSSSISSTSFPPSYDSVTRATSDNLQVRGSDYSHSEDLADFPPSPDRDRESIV
# Outline: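 Whole-cell automated patch clamp at room temperature on HEK293 stably expressing human Nav1.5; holding −80 mV, 20 consecutive cardiomyocyte action-potential-like test pulses before and after compound (0.1% DMSO). Inhibition measured on inward current at 20th pulse; IC50 from concentration-response curve.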
# [1] = human Nav1.7, automated patch clamp
# [2] = human Nav1.5, automated patch clamp
# [3] = HEK293A cells stably expressing human Nav1.7 and human Navβ1, automated patch clamp QPatch16X
# [4] = HEK293 cells stably expressing human Nav1.5, automated patch clamp QPatch16X
# Chain of human Nav1.7 (Q15858 whole entry): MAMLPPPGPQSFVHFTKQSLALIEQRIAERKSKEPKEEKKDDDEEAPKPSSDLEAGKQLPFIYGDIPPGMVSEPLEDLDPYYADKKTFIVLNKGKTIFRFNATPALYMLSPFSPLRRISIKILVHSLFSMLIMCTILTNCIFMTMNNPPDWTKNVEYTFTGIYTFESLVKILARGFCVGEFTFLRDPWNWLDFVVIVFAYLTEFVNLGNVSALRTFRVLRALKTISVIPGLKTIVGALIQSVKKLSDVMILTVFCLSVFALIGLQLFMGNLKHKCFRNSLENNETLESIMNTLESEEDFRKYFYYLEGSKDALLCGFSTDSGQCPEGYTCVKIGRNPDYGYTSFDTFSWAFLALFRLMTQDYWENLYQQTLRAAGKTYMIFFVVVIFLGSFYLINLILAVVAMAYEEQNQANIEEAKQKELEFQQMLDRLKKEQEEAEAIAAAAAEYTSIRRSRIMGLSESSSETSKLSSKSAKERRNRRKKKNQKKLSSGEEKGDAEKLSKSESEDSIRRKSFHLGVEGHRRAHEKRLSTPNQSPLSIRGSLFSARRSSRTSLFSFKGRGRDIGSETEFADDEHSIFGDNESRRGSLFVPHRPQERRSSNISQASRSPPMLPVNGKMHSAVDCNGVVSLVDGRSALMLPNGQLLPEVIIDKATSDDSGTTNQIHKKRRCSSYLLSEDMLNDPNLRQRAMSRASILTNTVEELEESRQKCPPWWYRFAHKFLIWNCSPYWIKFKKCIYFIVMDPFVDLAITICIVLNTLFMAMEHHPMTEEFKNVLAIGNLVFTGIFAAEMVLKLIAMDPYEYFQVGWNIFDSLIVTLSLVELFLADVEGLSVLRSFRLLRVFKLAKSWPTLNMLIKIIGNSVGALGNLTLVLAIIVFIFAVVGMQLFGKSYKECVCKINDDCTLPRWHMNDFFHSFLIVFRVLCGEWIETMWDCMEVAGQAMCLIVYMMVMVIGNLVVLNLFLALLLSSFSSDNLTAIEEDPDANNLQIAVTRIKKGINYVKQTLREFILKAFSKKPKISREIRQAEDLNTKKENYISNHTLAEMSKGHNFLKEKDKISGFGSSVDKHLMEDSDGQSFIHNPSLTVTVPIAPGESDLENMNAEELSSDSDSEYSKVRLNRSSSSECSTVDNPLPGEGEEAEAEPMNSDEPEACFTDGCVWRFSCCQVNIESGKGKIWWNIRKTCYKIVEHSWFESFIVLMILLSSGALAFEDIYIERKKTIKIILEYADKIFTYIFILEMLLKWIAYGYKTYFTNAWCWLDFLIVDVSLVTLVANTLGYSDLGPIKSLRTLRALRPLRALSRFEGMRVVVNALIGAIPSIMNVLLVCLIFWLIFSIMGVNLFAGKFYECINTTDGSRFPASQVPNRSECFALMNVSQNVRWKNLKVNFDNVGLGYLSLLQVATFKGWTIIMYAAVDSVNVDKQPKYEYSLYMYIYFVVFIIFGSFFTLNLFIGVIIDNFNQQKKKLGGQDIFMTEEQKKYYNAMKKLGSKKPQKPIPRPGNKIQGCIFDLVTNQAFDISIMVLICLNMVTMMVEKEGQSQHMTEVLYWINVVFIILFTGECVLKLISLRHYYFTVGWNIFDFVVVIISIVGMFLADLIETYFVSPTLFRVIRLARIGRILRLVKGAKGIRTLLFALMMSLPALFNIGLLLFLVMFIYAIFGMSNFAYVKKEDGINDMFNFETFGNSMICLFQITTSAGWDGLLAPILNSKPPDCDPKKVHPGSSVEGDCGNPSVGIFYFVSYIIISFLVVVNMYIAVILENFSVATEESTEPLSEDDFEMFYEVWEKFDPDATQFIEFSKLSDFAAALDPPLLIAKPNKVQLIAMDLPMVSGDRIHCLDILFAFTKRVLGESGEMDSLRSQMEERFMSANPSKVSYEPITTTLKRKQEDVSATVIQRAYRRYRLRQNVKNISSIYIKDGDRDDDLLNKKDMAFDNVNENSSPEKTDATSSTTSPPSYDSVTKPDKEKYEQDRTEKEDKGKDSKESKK
# Chain of human Nav1.7 (Q07699 19-218 partner): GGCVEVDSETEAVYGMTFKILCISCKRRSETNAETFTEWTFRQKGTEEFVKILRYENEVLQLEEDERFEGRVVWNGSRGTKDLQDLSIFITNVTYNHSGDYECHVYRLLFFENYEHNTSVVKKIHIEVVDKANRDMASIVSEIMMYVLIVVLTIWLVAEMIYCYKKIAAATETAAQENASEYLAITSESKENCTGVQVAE
Structure (SMILES),IC50 (human Nav1.7; [1]) [nM],IC50 (human Nav1.5; [2]) [nM],IC50 (human Nav1.7; [3]) [nM],IC50 (human Nav1.5; [4]) [nM]
CC(C)(c1ccccn1)N1CCn2nc(C(=O)N[C@H]3COc4ccc(Cl)cc4C3)cc2C1 [Example 285],< 1000,1000 to 3000,–,–
"N#Cc1ccc2c(c1)C[C@@H](NC(=O)c1cc3n(n1)CC(CCOCC1CC1)O3)CO2 (stereo partly drawn) [Example 201, N—((R)-6-cyanochroman-3-yl)-2-(2-(cyclopropylmethoxy)ethyl)-2,3-dihydropyrazolo[5,1-b]oxazole-6-carboxamide]",< 1000,1000 to 3000,–,–
"COC1c2cc(C(F)(F)F)ccc2OC[C@@H]1NC(=O)c1cc2n(n1)CC(COCC(F)(F)F)O2 (single isomer, unassigned; isomer b) [597(isomer B)]",< 1000,1000 to 3000,–,–
"O=C(N[C@H]1COc2ccc(COCC(F)(F)F)cc2C1)c1cc2n(n1)CC(CCOCC(F)F)O2 (single isomer, unassigned) [224 (isomer A)]",< 1000,≥ 3000,–,–
CC1(COCC2CCn3nc(C(=O)N[C@H]4COc5ccc(C#N)cc5C4)cc3O2)CC1 (stereo partly drawn) [Example 112],–,–,< 1000,≥ 3000
"N#Cc1ccc2c(c1)C[C@@H](NC(=O)c1cc3n(n1)CC(CSCC(F)(F)F)O3)CO2 (single isomer, unassigned) [200 (isomer A)]",< 10000,≥ 3000,–,–
O=C(N[C@H]1COc2ccc(Cl)cc2C1)c1cc2n(n1)CCN(CCC1CC1)C2 [Example 263],< 1000,1000 to 3000,–,–
N#Cc1ccc2c(c1)C[C@@H](NC(=O)c1cc3n(n1)CCN(C1(c4ccc(F)cc4)CC1)C3)CO2 [Example 282],< 1000,1000 to 3000,–,–
N#Cc1ccc(N2CCn3nc(C(=O)N[C@H]4COc5ccc(Cl)cc5C4)cc3C2)nc1 [Example 280],< 10000,< 1000,–,–
COc1ccc(-c2ccc3c(c2)C[C@@H](NC(=O)c2cc4n(n2)CCC(C(F)(F)F)O4)CO3)cn1 (stereo partly drawn) [Example 378],< 10000,≥ 3000,–,–
N#Cc1ccc2c(c1)C[C@@H](NC(=O)c1cc3n(n1)CC(C(F)(F)COCC1CC1)O3)CO2 (stereo partly drawn) [Example 541],< 1000,≥ 3000,–,–
N#Cc1ccc2c(c1)C[C@@H](NC(=O)c1cc3n(n1)CCC(COCC(F)(F)C(F)(F)F)O3)CO2 (stereo partly drawn) [Example 412],< 1000,1000 to 3000,–,–
O=C(N[C@H]1COc2ccc(-c3cnccn3)cc2C1)c1cc2n(n1)CC(CCOCC(F)(F)F)O2 (stereo partly drawn) [Example 456],< 1000,1000 to 3000,–,–
"O=C(N[C@H]1COc2ccc(Cl)cc2C1)c1cc2n(n1)CCC(C(F)(F)F)O2 (single isomer, unassigned) [170 (isomer B)]",< 1000,< 1000,–,–
N#Cc1ccc2c(c1)C[C@@H](NC(=O)c1cc3n(n1)CCC(C(F)(F)F)O3)CO2 (stereo partly drawn) [Example 374],< 1000,≥ 3000,–,–
O=C(N[C@H]1COc2ccc(CC(F)F)cc2C1)c1cc2n(n1)CCC(COC1CCC1)O2 (stereo partly drawn) [Example 437],< 1000,1000 to 3000,–,–
O=C(N[C@H]1COc2ccc(Cl)cc2C1)c1cn2c(n1)CCC(OCC(F)(F)F)C2 (stereo partly drawn) [Example 38],–,–,< 10000,≥ 3000
"O=C(N[C@H]1COc2ccc(CC(F)F)cc2C1)c1cc2n(n1)CC(CCOC(F)F)O2 (single isomer, unassigned) [219 (isomer A)]",< 10000,≥ 3000,–,–
"O=C(N[C@H]1COc2ccc(Br)cc2C1)c1cc2n(n1)CCC(C(F)F)O2 (stereo partly drawn) [Example 159, N—((R)-6-bromochroman-3-yl)-5-(difluoromethyl)-6,7-dihydro-5H-pyrazolo[5,1-b][1,3]oxazine-2-carboxamide]",< 1000,≥ 3000,–,–
O=C(N[C@H]1COc2ccccc2C1)c1nc2n(c1Cl)CC(c1ccccc1)CC2 (stereo partly drawn) [Example 25],–,–,< 10000,1000 to 3000
N#Cc1ccc2c(c1)C[C@@H](NC(=O)c1cc3n(n1)CCC(CCOC(F)(F)F)O3)CO2 (stereo partly drawn) [Example 143],< 1000,≥ 3000,–,–
O=C(N[C@H]1COc2ccc(Br)cc2C1)c1cc2n(n1)CCC(C(F)(F)F)O2 (stereo partly drawn) [Example 171],< 1000,1000 to 3000,–,–
"O=C(N[C@H]1COc2ccc(CCOC(F)F)cc2C1)c1cc2n(n1)CC(CCOC(F)F)O2 (single isomer, unassigned) [217 (isomer B)]",< 1000,< 1000,–,–
O=C(N[C@H]1COc2ccccc2C1)c1cc2n(n1)CCN(C(=O)Cc1ccccc1)C2 [Example 276],< 10000,≥ 3000,–,–
"O=C(N[C@H]1COc2ccc(Cl)cc2C1)c1cn2c(n1)CCC(C(F)(F)F)C2 (single isomer, unassigned) [Example 2 (isomer A)]",–,–,< 1000,1000 to 3000
O=C(N[C@H]1COc2ccc(Cl)cc2C1)c1nn2c(c1-c1ccccc1)OCCCC2 [Example 481],< 1000,≥ 3000,–,–

Structure (SMILES),IC50 (human Nav1.7; [1]) [nM],IC50 (human Nav1.5; [2]) [nM],IC50 (human Nav1.7; [3]) [nM],IC50 (human Nav1.5; [4]) [nM]
N#Cc1ccc2c(c1)C[C@@H](NC(=O)c1cc3n(n1)CC(COCC1CC1)O3)CO2 (stereo partly drawn) [Example 454],< 10000,≥ 3000,–,–
Cn1cc(-c2ccc3c(c2)C[C@@H](NC(=O)c2cc4n(n2)CC(CCOCC2CC2)O4)CO3)cn1 (stereo partly drawn) [Example 460],< 1000,≥ 3000,–,–
CC(C)COC1CCc2nc(C(=O)N[C@H]3COc4ccccc4C3)cn2C1 (stereo partly drawn) [Example 41],–,–,< 10000,≥ 3000
"CN(C(=O)c1cn2c(n1)CCC(C(F)(F)F)C2)[C@H]1COc2ccc(Cl)cc2C1 (single isomer, unassigned) [Example 4]",–,–,< 10000,≥ 3000
"O=C(N[C@H]1COc2ccc(COCC(F)(F)F)cc2C1)c1cc2n(n1)CCC(COC(F)F)O2 (single isomer, unassigned) [140 (isomer A)]",< 1000,≥ 3000,–,–
"N#Cc1ccc2c(c1)C[C@@H](NC(=O)c1cc3n(n1)CCC(COCC(F)(F)F)O3)CO2 (mixture of isomers) [Example 114, N—((R)-6-cyanochroman-3-yl)-5-((2,2,2-trifluoroethoxy)methyl)-6,7-dihydro-5H-pyrazolo[5,1-b][1,3]oxazine-2-carboxamide]",–,–,< 10000,≥ 3000
N#Cc1ccc2c(c1)C[C@@H](NC(=O)c1cc3n(n1)CCC(c1ccccc1F)O3)CO2 (stereo partly drawn) [Example 359],< 1000,≥ 3000,–,–
O=C(c1cn2c(n1)CCC(c1cccnc1C(F)(F)F)C2)N1CCC1Cc1ccccc1 (stereo not drawn) [Example 30],–,–,< 10000,≥ 3000
CC(C)(C)OCC1CCc2nc(C(=O)N[C@H]3COc4ccccc4C3)cn2C1 (stereo partly drawn) [Example 34],–,–,< 10000,≥ 3000
O=C(N[C@H]1COc2ccc(Cl)cc2C1)c1cc2n(n1)CCN(C1(C(F)(F)F)CC1)C2 [Example 283],< 1000,< 1000,–,–
N#Cc1ccc2c(c1)C[C@@H](NC(=O)c1cc3n(n1)CCC(CC1CC1)O3)CO2 (stereo partly drawn) [Example 96],–,–,< 1000,1000 to 3000
"O=C(N[C@H]1COc2ccc(Cl)cc2C1)c1cc2n(n1)CCC(CNCC(F)(F)F)O2 (single isomer, unassigned) [152 (isomer A)]",< 1000,≥ 3000,–,–
O=C(N[C@H]1COc2ccc(CC(F)F)cc2C1)c1cc2n(n1)CCC(CCOC(F)F)O2 (stereo partly drawn) [Example 147],< 1000,≥ 3000,–,–
CCc1ccc2c(c1)C[C@@H](NC(=O)c1cn3c(n1)CCC(C(F)(F)F)C3)CO2 (stereo partly drawn) [Example 11],–,–,< 1000,≥ 3000
"O=C(N[C@H]1COc2ccc(CC(F)F)cc2C1)c1cc2n(n1)CCC(COCC1CC1)O2 (single isomer, unassigned) [109 (isomer B)]",–,–,< 10000,≥ 3000
"N#CC1(COCC2CCn3nc(C(=O)N[C@H]4COc5ccc(Cl)cc5C4)cc3O2)CC1 (single isomer, unassigned) [563 (isomer A)]",< 10000,1000 to 3000,–,–
"O=C(N[C@H]1COc2ccc(C(F)(F)F)cc2C1O)c1cc2n(n1)CCC(COCC(F)(F)F)CO2 (single isomer, unassigned) [Example 683]",< 10000,≥ 3000,–,–
"COC1c2cc(C(F)(F)F)ccc2OC[C@@H]1NC(=O)c1cc2n(n1)CC(COCC(F)(F)F)O2 (single isomer, unassigned; isomer a) [597(isomer A)]",< 1000,≥ 3000,–,–
O=C(N[C@H]1COc2ccc(-c3ccncc3)cc2C1)c1cc2n(n1)CCC(c1ccccc1F)O2 (stereo partly drawn) [Example 80],–,–,< 1000,≥ 3000
C[C@@H]1CCn2nc(C(=O)N[C@H]3COc4ccc(Cl)cc4C3)cc2O1 [Example 87],–,–,< 10000,≥ 3000
N#Cc1ccc2c(c1)C[C@@H](NC(=O)c1cc3n(n1)CCN(c1ccc(F)cc1)C3)CO2 [Example 278],< 1000,1000 to 3000,–,–
"N#Cc1ccc2c(c1)C[C@@H](NC(=O)c1cc3n(n1)CC(CCOC(F)(F)F)O3)CO2 (single isomer, unassigned) [209 (isomer B)]",< 1000,< 1000,–,–
"N#Cc1ccc2c(c1)C[C@@H](NC(=O)c1cc3n(n1)CCC(COCC1CC1)O3)CO2 (mixture of isomers) [Example 102, N—((R)-6-cyanochroman-3-yl)-5-((cyclopropylmethoxy)methyl)-6,7-dihydro-5H-pyrazolo[5,1-b][1,3]oxazine-2-carboxamide]",–,–,< 1000,≥ 3000
"O=C(N[C@H]1COc2ccc(C(F)(F)F)cc2C1)c1cc2n(n1)CCC(OCC(F)(F)F)CO2 (single isomer, unassigned) [257 (isomer A)]",< 1000,≥ 3000,–,–
O=C(N[C@H]1COc2ccc(C(F)(F)F)cc2C1)c1nn2c(c1CCc1ccccn1)COCC2 [Example 531],< 10000,1000 to 3000,–,–
